target: Amyloid-beta precursor protein (Homo sapiens) (UniProt P05067); assay: Inhibition of amyloid beta (1 to 42) aggregation (unknown origin) at 10 uM relative to control; conditions: not given
Sequence (P05067 whole entry): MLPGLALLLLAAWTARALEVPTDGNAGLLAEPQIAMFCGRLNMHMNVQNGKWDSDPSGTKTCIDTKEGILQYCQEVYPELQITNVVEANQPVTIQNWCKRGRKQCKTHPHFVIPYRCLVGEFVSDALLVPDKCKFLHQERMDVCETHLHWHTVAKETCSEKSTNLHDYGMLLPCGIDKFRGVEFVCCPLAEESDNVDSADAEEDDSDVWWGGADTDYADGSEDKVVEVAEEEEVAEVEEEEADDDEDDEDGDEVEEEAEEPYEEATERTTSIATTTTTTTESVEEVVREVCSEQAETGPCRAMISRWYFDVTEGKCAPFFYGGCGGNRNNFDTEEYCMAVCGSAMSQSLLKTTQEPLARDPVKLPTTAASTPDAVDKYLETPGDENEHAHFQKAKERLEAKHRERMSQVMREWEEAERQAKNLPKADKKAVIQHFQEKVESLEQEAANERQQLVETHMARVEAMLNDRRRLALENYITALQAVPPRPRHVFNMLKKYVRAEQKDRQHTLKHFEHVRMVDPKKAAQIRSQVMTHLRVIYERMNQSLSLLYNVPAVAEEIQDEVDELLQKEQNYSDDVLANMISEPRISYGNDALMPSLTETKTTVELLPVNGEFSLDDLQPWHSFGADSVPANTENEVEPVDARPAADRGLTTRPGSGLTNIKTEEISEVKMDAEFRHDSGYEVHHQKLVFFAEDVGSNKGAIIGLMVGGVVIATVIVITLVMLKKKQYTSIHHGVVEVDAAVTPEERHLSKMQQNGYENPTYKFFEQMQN

SMILES	inhibition [%]
CCNCc1ccc2nc(-c3ccc(Cl)cc3)c3c(c2c1)N(Cc1ccccc1)CCC3	< 16
CCOC(=O)c1ccc2nc(-c3cccnc3)c3c(c2c1)N(Cc1ccccc1)CCC3	< 16
CCOC(=O)c1ccc2nc(-c3ccc(C(=O)OC)cc3)c3c(c2c1)N(Cc1ccccc1)CCC3	< 16
CCOC(=O)c1ccc2nc(-c3ccc(C(=O)OC)cc3)c3c(c2c1)N(Cc1ccccc1)C(=O)CC3	< 16
CCOC(=O)c1ccc2nc(-c3ccc(Cl)cc3)c3c(c2c1)N(Cc1ccc(OC)cc1)CCC3	< 16
CCOC(=O)c1ccc2nc(-c3cccnc3)c3c(c2c1)N(Cc1ccccc1)C(=O)CC3	< 16

target: Acetylcholinesterase (Electrophorus electricus) (UniProt O42275); assay: Inhibition of electric eel AChE using acetylthiocholine iodide as substrate at 30 uM preincubated for 20 mins followed by substrate addition measured after 5 mins by Ellman's method relative to control; conditions: not given
Sequence (O42275 24-633 limits assumed): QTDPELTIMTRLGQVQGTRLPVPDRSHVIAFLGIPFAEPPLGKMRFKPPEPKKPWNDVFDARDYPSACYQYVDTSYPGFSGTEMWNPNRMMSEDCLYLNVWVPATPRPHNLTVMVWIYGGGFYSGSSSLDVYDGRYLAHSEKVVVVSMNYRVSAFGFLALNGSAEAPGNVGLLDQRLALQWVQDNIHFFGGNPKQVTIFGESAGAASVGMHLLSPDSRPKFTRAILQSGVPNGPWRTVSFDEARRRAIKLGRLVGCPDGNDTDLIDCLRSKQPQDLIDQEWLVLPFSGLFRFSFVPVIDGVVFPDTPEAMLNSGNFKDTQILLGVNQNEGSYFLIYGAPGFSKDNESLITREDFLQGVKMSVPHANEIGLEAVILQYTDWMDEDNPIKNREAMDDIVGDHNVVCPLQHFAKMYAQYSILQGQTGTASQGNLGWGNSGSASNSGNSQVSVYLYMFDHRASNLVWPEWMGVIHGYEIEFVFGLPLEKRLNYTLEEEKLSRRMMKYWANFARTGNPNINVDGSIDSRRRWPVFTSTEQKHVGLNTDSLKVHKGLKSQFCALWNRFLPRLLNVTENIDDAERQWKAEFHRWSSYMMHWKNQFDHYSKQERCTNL

SMILES	inhibition [%]
CCOC(=O)c1ccc2nc(-c3ccc(Cl)cc3)c3c(c2c1)N(Cc1ccc(OC)cc1)CCC3	33.7
CCOC(=O)c1ccc2nc(-c3cccnc3)c3c(c2c1)N(Cc1ccccc1)C(=O)CC3	43.7

target: T1, Acetylcholinesterase (Electrophorus electricus, UniProt O42275); assay: (§1) Displacement of propidium from electric eel AChE peripheral anionic site assessed as decrease in fluorescence intensity by spectrofluorometric analysis; conditions: not given
T1 sequence (O42275 whole entry): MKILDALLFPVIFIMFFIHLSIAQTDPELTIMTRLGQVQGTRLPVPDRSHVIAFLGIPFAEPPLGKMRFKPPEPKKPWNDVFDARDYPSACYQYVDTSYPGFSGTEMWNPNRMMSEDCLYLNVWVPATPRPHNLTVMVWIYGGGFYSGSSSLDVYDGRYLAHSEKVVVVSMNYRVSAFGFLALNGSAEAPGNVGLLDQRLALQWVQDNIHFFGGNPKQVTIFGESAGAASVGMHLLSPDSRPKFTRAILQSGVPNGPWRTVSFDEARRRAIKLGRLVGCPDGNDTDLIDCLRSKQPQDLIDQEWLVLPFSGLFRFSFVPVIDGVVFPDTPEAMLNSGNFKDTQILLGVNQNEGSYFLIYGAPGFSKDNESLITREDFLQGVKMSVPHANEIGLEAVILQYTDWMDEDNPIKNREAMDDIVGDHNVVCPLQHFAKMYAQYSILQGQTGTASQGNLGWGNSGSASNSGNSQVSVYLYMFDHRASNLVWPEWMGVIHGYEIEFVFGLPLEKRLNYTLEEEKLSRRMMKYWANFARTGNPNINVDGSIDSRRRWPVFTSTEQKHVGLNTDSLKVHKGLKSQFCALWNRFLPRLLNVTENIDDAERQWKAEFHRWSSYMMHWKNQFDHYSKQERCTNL

SMILES	Kd [µM]
CCNCc1ccc2nc(-c3ccc(Cl)cc3)c3c(c2c1)N(Cc1ccccc1)CCC3	3.2

target: Acetylcholinesterase (Electrophorus electricus) (UniProt O42275); assay: as §1; conditions: not given

SMILES	inhibition
CCNCc1ccc2nc(-c3ccc(Cl)cc3)c3c(c2c1)N(Cc1ccccc1)CCC3	Dose-dependent effect

target: T1, Acetylcholinesterase; assay: not given; conditions: not given

SMILES	IC50 [µM]
CCNCc1ccc2nc(-c3ccc(Cl)cc3)c3c(c2c1)N(Cc1ccccc1)CCC3	0.147
CCOC(=O)c1ccc2nc(-c3cccnc3)c3c(c2c1)N(Cc1ccccc1)CCC3	1.97
CCOC(=O)c1ccc2nc(-c3ccc(C(=O)OC)cc3)c3c(c2c1)N(Cc1ccccc1)CCC3	6.62
CCOC(=O)c1ccc2nc(-c3ccc(C(=O)OC)cc3)c3c(c2c1)N(Cc1ccccc1)C(=O)CC3	13.6
CCOC(=O)c1ccc2nc(-c3ccc(Cl)cc3)c3c(c2c1)N(Cc1ccc(OC)cc1)CCC3	> 30
CCOC(=O)c1ccc2nc(-c3cccnc3)c3c(c2c1)N(Cc1ccccc1)C(=O)CC3	> 30

target: Acetylcholinesterase (Electrophorus electricus) (UniProt O42275); assay: Binding affinity to electric eel AChE peripheral anionic site assessed as concentration required for decreasing initial fluorescence intensity of AChE-propidium complex by spectrofluorometric analysis; conditions: not given

SMILES	Activity [µM]
CCNCc1ccc2nc(-c3ccc(Cl)cc3)c3c(c2c1)N(Cc1ccccc1)CCC3	33

target: Cholinesterase (Homo sapiens, UniProt P06276); assay: Inhibition of human serum BChE using butyrylthiocholine iodide as substrate at 30 uM preincubated for 20 mins followed by substrate addition measured after 5 mins by Ellman's method relative to control; conditions: not given
Sequence (P06276 whole entry): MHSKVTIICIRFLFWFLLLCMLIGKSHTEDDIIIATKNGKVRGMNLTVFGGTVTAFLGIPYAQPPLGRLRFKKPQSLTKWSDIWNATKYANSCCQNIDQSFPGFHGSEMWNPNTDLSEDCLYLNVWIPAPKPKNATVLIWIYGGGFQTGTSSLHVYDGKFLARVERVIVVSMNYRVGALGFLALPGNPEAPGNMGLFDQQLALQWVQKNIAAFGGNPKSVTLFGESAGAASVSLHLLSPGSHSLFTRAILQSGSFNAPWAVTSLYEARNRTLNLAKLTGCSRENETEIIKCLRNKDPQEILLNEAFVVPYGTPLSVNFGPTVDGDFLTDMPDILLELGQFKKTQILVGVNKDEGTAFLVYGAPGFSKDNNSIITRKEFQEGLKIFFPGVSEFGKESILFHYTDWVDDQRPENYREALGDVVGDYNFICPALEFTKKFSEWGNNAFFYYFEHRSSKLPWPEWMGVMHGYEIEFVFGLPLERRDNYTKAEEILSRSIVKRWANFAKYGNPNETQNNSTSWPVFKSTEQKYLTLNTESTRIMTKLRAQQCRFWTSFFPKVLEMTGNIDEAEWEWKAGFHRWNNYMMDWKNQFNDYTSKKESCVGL

SMILES	inhibition [%]
CCOC(=O)c1ccc2nc(-c3ccc(C(=O)OC)cc3)c3c(c2c1)N(Cc1ccccc1)CCC3	6.61
CCOC(=O)c1ccc2nc(-c3ccc(C(=O)OC)cc3)c3c(c2c1)N(Cc1ccccc1)C(=O)CC3	5.54
CCOC(=O)c1ccc2nc(-c3ccc(Cl)cc3)c3c(c2c1)N(Cc1ccc(OC)cc1)CCC3	12.4
CCOC(=O)c1ccc2nc(-c3cccnc3)c3c(c2c1)N(Cc1ccccc1)C(=O)CC3	4.42

system: not listed separately; assay: in vitro; conditions: PAMPA
Description: Permeability of the compound by BBB-PAMPA

SMILES	Papp [×10⁻⁶ cm/s]
CCn1cc(C(=O)O)c(=O)c2cc(F)c(N3CCNC(C)C3)c(F)c21 (stereo unspecified) [LOMEFLOXACIN]	0.75
CCOC(=O)c1ccc2nc(-c3ccc(C(=O)OC)cc3)c3c(c2c1)N(Cc1ccccc1)CCC3	9.5
CCOC(=O)c1ccc2nc(-c3ccc(C(=O)OC)cc3)c3c(c2c1)N(Cc1ccccc1)C(=O)CC3	16.8
CCOC(=O)c1ccc2nc(-c3ccc(Cl)cc3)c3c(c2c1)N(Cc1ccc(OC)cc1)CCC3	26
CN1C(C(=O)Nc2ccccn2)=C(O)c2ccccc2S1(=O)=O [PIROXICAM]	1.71
CCOC(=O)c1ccc2nc(-c3cccnc3)c3c(c2c1)N(Cc1ccccc1)C(=O)CC3	12.2

target: T2, Acetylcholinesterase (Homo sapiens, UniProt P22303); assay: Inhibition of human recombinant AChE using acetylthiocholine iodide as substrate at 25 uM preincubated for 20 mins followed by substrate addition by Ellman's method relative to control; conditions: not given
T2 sequence (P22303 whole entry): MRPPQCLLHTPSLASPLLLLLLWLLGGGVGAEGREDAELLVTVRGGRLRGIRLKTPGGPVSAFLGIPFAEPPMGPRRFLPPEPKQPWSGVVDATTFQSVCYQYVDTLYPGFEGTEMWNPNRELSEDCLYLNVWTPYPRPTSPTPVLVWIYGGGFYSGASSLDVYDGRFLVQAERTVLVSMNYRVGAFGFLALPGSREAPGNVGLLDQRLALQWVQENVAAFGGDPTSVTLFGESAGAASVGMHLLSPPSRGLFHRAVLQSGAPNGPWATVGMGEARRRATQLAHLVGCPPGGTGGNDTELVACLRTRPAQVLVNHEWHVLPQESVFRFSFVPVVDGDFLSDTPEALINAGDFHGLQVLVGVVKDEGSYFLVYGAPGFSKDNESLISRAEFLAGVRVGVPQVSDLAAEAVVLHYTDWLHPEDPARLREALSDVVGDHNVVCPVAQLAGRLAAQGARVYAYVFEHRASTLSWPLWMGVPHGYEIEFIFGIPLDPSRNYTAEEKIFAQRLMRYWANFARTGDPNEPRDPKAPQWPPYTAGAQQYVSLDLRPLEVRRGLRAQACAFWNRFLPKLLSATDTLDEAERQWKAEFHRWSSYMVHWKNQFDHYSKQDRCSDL

SMILES	inhibition [%]
CCOC(=O)c1ccc2nc(-c3ccc(C(=O)OC)cc3)c3c(c2c1)N(Cc1ccccc1)CCC3	15.7
CCOC(=O)c1ccc2nc(-c3ccc(C(=O)OC)cc3)c3c(c2c1)N(Cc1ccccc1)C(=O)CC3	13.8
CCOC(=O)c1ccc2nc(-c3ccc(Cl)cc3)c3c(c2c1)N(Cc1ccc(OC)cc1)CCC3	10.2

target: T2, Acetylcholinesterase; assay: Inhibition of human recombinant AChE using acetylthiocholine iodide as substrate preincubated for 20 mins followed by substrate addition by Ellman's method; conditions: not given

SMILES	IC50 [µM]
CCNCc1ccc2nc(-c3ccc(Cl)cc3)c3c(c2c1)N(Cc1ccccc1)CCC3	0.942
CCOC(=O)c1ccc2nc(-c3cccnc3)c3c(c2c1)N(Cc1ccccc1)CCC3	1.06
CCOC(=O)c1ccc2nc(-c3ccc(C(=O)OC)cc3)c3c(c2c1)N(Cc1ccccc1)CCC3	> 25
CCOC(=O)c1ccc2nc(-c3ccc(C(=O)OC)cc3)c3c(c2c1)N(Cc1ccccc1)C(=O)CC3	> 25
CCOC(=O)c1ccc2nc(-c3ccc(Cl)cc3)c3c(c2c1)N(Cc1ccc(OC)cc1)CCC3	> 25
CCOC(=O)c1ccc2nc(-c3cccnc3)c3c(c2c1)N(Cc1ccccc1)C(=O)CC3	13

Source: ChEMBL document CHEMBL3120164, “1,2,3,4-Tetrahydrobenzo[h][1,6]naphthyridines as a new family of potent peripheral-to-midgorge-site inhibitors of acetylcholinesterase: synthesis, pharmacological evaluation and mechanistic studies” (Eur J Med Chem, 2014)
